System: angiogenesis from the choroid plexus
Assay: Laser-induced angiogenesis from the choroid plexus (AMD model), administration into the vitreous body
Assay type: in vivo, mouse
Conditions: for suppressive effect on AMD onset (FIG. 2): figure legend FIG. 2, old mice, administration into vitreous body after laser irradiation
Description: Laser light (power: 200 mW, exposure time: 0.10 seconds, wavelength: 532 nm) was irradiated in 4 to 5 spots onto male young (8 to 12 weeks) and old (44 to 48 weeks) BLT1^+/+ mice and BLT1^−/− mice, and after 7 days, the eyes were isolated and fixed using a phosphate buffered saline (PBS) containing 4% paraformaldehyde (PFA), the cornea, lens, and retina were removed, and then fixed again using 4% PFA/PBS. The ocular tissue containing the retinal pigment epithelia and choroid plexus were immersed in PBS containing methanol in order of 50%, 75%, 100%, 75%, 50%, and 25% to remove water, and then incubated at 4° C. for 1 hour in a blocking solution (1% bovine blood serum albumin, phosphate buffered saline containing 0.1% Triton X-100), and then stained overnight at 4° C. using isolectin B4 (IB4, […]) labeled with FITC. Incisions were made in the samples and the samples were molded on a slide glass, sealed with a mounting agent containing an antifading reagent, and then a cover glass was placed thereon to produce a flat mount. A three-dimensional IB4 positive blood vessels image was captured using a confocal microscope, and the volume of angiogenesis that occurred in each mouse was measured.
Immediately after laser light irradiation of C57BL/6 background old mice purchased (Japan SLC, wild mice, 40 weeks or older, male), DMSO (final: 0.1%, diluted with PBS), CP105696 (where in the formula (1), R^1=phenyl and R^2=1-carboxycyclopentyl group) which is a BLT1 antagonist, or zileuton, bestatin, or MK886 each of which is an inhibitor for LTB4 production-related enzyme was administered into a vitreous body of each mouse. Similar to Test Example 1, angiogenesis from the choroid plexus was evaluated 7 days after laser irradiation.

| SMILES | angiogenesis volume (C57BL/6 background old mice (40 weeks or older, male), administered into vitreous body immediately after laser irradiation, evaluated 7 days after laser irradiation) | suppressive effect on AMD onset (FIG. 2) |
| --- | --- | --- |
| O=C(O)C1(c2ccc3c(c2)OC[C@H](Cc2ccc(-c4ccccc4)cc2)[C@H]3O)CCCC1 [CP 105696, 1-[(3S,4R)-4-hydroxy-3-[(4-phenylphenyl)methyl]chroman-7-yl]cyclopentane-1-carboxylic acid] | significantly reduced in a concentration-dependent manner | suppressive effect |
| CC(C)c1ccc2c(c1)c(SC(C)(C)C)c(CC(C)(C)C(=O)O)n2Cc1ccc(Cl)cc1 [MK886] | – | suppressive effect |
| CC(C)C[C@H](NC(=O)[C@@H](O)[C@H](N)Cc1ccccc1)C(=O)O [bestatin, N-[(2S,3R)-3-amino-2-hydroxy-4-phenylbutyryl]-L-leucine] | – | suppressive effect |
| CC(c1cc2ccccc2s1)N(O)C(N)=O (centres unmarked) [zileuton, N-[1-(1-benzothien-2-yl)ethyl]-N-hydroxyurea] | – | suppressive effect |

— patent US20170333516A1, “PREVENTIVE OR THERAPEUTIC AGENT FOR AGE-RELATED MACULAR DEGENERATION” (JUNTENDO EDUCATIONAL FOUNDATION, priority 2014, published 2017)
